ChEMBL document CHEMBL3108774, “Azaindoles: noncovalent DprE1 inhibitors from scaffold morphing efforts, kill Mycobacterium tuberculosis and are efficacious in vivo” (J Med Chem, 2013)
≈ marks a conversion by molar mass, not a printed value.

Columns and labels:
[1] = Inhibition of Mycobacterium smegmatis thioredoxin 6xHis-tagged decaprenylphosphoryl-beta-D-ribose2'-epimerase1 overexpressed in Escherichia coli rossetta cells using farnesyl-phosphoryl-beta-D-ribofuranose as substrate; design: species or system Mycolicibacterium smegmatis
[2] = test system: Mycobacterium tuberculosis; assay: Antimicrobial activity against Mycobacterium tuberculosis H37Rv ATCC 27294 assessed as growth inhibition after 5 days by microdilution method; format: functional; conditions: H37Rv ATCC 27294, 120 h
[3] = Kinetic solubility of the compound in phosphate buffer at pH 7.4 after 24 hrs by LC-MS analysis; format: physicochemical; conditions: read-out: Kinetic_solubility
[4] = test system: Mycobacterium tuberculosis; assay: Bactericidal activity against hypoxia induced nonreplicating persistent Mycobacterium tuberculosis H37Rv after 7 days; format: functional; conditions: 168 h
[5] = Cytotoxicity against human A549 cells assessed as cell viability after 72 hrs by resazurin staining-based fluorimetric analysis; conditions: read-out: MIC
[6] = target: Voltage-gated inwardly rectifying potassium channel KCNH2 (Homo sapiens, UniProt Q12809); assay: Inhibition of human ERG
Voltage-gated inwardly rectifying potassium channel KCNH2, sequence (Q12809 whole entry): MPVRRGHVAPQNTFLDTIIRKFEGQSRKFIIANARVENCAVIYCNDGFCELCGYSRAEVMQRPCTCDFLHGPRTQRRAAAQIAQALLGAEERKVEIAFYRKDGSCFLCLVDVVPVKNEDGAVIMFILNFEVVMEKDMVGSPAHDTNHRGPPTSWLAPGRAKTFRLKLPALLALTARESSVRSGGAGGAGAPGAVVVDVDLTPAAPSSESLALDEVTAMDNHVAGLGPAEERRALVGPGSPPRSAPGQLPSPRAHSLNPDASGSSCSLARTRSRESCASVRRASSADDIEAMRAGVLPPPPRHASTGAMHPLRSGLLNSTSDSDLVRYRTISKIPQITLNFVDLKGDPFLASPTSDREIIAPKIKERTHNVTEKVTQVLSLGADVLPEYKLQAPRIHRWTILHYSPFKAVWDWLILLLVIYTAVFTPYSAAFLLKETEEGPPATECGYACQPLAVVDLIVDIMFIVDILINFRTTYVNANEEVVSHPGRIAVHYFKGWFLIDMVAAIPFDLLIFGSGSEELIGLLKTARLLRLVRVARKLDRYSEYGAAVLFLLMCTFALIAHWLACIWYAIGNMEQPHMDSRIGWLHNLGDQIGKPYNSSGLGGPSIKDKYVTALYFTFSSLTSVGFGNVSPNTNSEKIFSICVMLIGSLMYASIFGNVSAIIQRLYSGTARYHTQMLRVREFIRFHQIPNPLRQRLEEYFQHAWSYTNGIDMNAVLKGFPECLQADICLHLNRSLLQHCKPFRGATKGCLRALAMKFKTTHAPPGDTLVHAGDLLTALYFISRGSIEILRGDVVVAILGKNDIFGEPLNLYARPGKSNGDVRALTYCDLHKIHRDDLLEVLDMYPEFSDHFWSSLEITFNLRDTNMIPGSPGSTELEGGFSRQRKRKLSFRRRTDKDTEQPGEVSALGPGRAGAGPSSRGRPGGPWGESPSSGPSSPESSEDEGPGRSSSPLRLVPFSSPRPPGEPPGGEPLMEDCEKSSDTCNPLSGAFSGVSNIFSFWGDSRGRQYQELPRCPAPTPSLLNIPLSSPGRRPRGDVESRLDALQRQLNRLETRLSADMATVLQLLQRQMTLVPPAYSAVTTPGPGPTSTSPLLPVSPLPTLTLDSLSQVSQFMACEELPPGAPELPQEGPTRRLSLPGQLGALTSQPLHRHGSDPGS

Cytochrome P450 2D6 = Cytochrome P450 2D6 (Homo sapiens, UniProt P10635); assay: Inhibition of human CYP2D6; format: ADME
Cytochrome P450 2D6, sequence (P10635 whole entry): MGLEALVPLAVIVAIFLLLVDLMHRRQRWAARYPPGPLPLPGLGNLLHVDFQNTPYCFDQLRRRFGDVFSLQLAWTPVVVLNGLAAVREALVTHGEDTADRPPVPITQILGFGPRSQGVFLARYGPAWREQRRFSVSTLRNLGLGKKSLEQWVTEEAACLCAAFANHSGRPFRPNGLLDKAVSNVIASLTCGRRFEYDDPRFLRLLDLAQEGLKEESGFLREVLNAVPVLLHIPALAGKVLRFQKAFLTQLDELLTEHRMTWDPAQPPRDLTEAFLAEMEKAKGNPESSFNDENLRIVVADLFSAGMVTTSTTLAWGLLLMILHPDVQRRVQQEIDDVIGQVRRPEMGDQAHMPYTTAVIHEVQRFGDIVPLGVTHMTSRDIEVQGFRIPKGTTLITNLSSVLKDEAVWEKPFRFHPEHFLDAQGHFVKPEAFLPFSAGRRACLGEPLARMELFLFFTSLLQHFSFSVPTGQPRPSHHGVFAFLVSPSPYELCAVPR

[7] = Unbound fraction in human plasma; format: ADME, cell-free
[8] = Inhibition of Mycobacterium smegmatis thioredoxin 6xHis-tagged decaprenylphosphoryl-beta-D-ribose2'-epimerase1 Y321H mutant overexpressed in Escherichia coli rossetta cells using farnesyl-phosphoryl-beta-D-ribofuranose as substrate; design: species or system Mycolicibacterium smegmatis
Cytochrome P450 1A2 = target: T1, Cytochrome P450 1A2 (Homo sapiens, UniProt P05177); assay: Inhibition of human CYP1A2; format: ADME
T1 sequence (P05177 whole entry): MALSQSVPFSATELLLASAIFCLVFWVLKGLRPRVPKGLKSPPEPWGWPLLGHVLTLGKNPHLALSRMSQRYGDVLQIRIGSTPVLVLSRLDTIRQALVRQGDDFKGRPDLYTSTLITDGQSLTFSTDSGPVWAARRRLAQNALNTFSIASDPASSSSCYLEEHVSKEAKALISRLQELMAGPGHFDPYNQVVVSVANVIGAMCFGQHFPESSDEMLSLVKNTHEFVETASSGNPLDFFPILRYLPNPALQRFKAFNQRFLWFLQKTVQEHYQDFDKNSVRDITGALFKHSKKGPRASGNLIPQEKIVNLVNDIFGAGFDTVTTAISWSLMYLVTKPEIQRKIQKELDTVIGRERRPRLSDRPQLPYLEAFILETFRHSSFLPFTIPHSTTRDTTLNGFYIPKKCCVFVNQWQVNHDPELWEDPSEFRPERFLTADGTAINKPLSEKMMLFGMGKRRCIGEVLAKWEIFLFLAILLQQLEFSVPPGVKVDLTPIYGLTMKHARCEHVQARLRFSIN

[9] = Inhibition of Mycobacterium smegmatis thioredoxin 6xHis-tagged decaprenylphosphoryl-beta-D-ribose2'-epimerase1 C394G mutant overexpressed in Escherichia coli rossetta cells using farnesyl-phosphoryl-beta-D-ribofuranose as substrate; design: species or system Mycolicibacterium smegmatis
Cytochrome P450 2C19 = Cytochrome P450 2C19 (Homo sapiens, UniProt P33261); assay: Inhibition of human CYP2C19; format: ADME
Cytochrome P450 2C19, sequence (P33261 whole entry): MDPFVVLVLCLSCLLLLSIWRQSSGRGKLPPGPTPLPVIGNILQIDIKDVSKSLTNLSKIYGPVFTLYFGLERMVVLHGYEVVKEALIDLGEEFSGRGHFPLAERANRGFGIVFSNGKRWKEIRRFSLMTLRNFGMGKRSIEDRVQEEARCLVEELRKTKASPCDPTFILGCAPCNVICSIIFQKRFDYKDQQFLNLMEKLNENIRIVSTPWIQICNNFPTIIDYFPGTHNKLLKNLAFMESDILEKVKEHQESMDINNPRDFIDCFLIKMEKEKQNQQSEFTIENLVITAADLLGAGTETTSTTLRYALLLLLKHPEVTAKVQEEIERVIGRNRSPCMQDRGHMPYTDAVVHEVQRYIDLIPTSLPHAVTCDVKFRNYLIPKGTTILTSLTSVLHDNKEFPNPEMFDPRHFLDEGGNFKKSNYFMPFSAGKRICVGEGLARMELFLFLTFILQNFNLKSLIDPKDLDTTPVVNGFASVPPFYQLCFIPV

Cytochrome P450 3A4 = Cytochrome P450 3A4 (Homo sapiens, UniProt P08684); assay: Inhibition of human CYP3A4; format: ADME
Cytochrome P450 3A4, sequence (P08684 whole entry): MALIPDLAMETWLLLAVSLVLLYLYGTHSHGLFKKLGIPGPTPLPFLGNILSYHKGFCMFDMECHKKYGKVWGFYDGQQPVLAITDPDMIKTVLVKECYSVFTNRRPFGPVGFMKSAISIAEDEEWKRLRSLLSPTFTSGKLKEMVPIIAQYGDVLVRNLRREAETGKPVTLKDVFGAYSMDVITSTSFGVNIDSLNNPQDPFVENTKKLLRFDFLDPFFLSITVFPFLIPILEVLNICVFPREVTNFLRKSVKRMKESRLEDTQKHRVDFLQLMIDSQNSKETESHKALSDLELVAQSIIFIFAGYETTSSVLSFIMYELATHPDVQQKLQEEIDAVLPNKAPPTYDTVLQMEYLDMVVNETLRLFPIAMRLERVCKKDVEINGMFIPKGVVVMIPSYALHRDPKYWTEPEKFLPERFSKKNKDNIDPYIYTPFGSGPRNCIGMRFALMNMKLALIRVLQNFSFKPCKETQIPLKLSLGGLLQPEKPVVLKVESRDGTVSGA

Cytochrome P450 2C9 = Cytochrome P450 2C9 (Homo sapiens, UniProt P11712); assay: Inhibition of human CYP2C9; format: ADME
Cytochrome P450 2C9, sequence (P11712 whole entry): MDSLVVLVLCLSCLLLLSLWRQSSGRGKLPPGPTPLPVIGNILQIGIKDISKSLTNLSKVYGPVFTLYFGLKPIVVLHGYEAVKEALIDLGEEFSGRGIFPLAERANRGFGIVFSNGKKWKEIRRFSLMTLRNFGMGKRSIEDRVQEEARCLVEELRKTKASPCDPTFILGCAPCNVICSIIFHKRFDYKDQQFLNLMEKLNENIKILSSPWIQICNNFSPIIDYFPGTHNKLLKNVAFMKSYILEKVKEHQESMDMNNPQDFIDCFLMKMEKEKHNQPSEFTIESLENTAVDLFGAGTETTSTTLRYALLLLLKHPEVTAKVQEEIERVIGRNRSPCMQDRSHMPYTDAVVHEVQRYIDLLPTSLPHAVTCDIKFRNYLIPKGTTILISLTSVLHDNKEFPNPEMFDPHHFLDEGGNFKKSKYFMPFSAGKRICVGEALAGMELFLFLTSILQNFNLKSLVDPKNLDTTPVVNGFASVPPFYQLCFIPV

[10] = test system: Mycobacterium tuberculosis; assay: Bactericidal activity against Mycobacterium tuberculosis H37Rv ATCC 27294 after 5 days by microdilution method; format: functional; conditions: H37Rv ATCC 27294, 120 h
[11] = AUC in BALB/C mouse infected with Mycobacterium tuberculosis H37Rv ATCC 27294 at 50 to 200 mg/kg, po qd administered for 24 days by LC-MS/MS analysis; format: ADME, organism-based; design: dose 50-200 mg/kg, route oral; conditions: plasma
[12] = test system: Mycobacterium tuberculosis; assay: Bactericidal activity against Mycobacterium tuberculosis H37Rv ATCC 27294 infected in human THP1 cells assessed as reduction in CFU at 1 to 4 times MIC at day 10 by time-kill method; format: functional, THP-1
Mus musculus = assay: fT>MIC in BALB/C mouse infected with Mycobacterium tuberculosis H37Rv ATCC 27294 at 50 to 200 mg/kg, po qd after 10 to 24 hrs
[13] = test system: Mycobacterium tuberculosis; assay: Antimicrobial activity against Mycobacterium tuberculosis H37Rv ATCC 27294 infected in BALB/C mouse acute infection model assessed as reduced bacterial burden in lungs at 50 to 100 mg/kg, po administered 3 days postinfection measured after 4 weeks; format: functional, Lung; conditions: dose mg/kg 50-100
[14] = test system: Mycobacterium tuberculosis; assay: Antimicrobial activity against Mycobacterium tuberculosis H37Rv ATCC 27294 infected in BALB/C mouse chronic infection model assessed as reduced bacterial burden in lungs at 30 to 100 mg/kg, po administered on day 28 measured after 4 weeks; format: functional, Lung; conditions: dose mg/kg 30-100
[15] = test system: Mycobacterium tuberculosis; assay: Bactericidal activity against Mycobacterium tuberculosis H37Rv ATCC 27294 infected in human THP1 cells assessed as reduction in CFU at 1 to 4 times MIC by time-kill method; format: functional, THP-1
[16] = test system: Mycobacterium tuberculosis; assay: Antimicrobial activity against po dosed Mycobacterium tuberculosis H37Rv ATCC 27294 infected BALB/C mouse chronic infection model assessed as reduced bacterial burden in lungs administered on day 28 measured after 4 weeks; format: functional, organism-based; conditions: Lung
[17] = test system: Mycobacterium tuberculosis; assay: Antimicrobial activity against po dosed Mycobacterium tuberculosis H37Rv ATCC 27294 infected BALB/C mouse acute infection model assessed as reduced bacterial burden in lungs administered 3 days postinfection measured after 4 weeks; format: functional, organism-based; conditions: Lung
[18] = test system: Mycobacterium tuberculosis; assay: Bactericidal activity against hypoxia induced nonreplicating persistent Mycobacterium tuberculosis H37Rv assessed as reduction in CFU at 30 times MIC; format: functional

Cc1c(Cn2cc(C(=O)NCCF)c3ncccc32)ncnc1N(C)C
IC50 [1]: 20 nM | MIC [2]: 6.25 µM (≈ 2.23 µg/mL)

COc1ncnc(Cn2cc(C(=O)NCCF)c3ncc(C)cc32)c1C
solubility kinetic at 24 h [3]: 4 µM (≈ 1.43 µg/mL) | MBC [4]: 100 µM (≈ 35.7 µg/mL) | IC50 [1]: 3 nM | MCC at 72 h [5]: > 100 µM | INH [6]: > 33 µM | MIC [2]: < 0.39 µM | INH (Cytochrome P450 2D6): > 50 µM | fraction unbound [7]: 0.05 | IC50 [8]: > 10000 nM | INH (Cytochrome P450 1A2): > 50 µM | IC50 [9]: 7 nM | INH (Cytochrome P450 2C19): > 50 µM | INH (Cytochrome P450 3A4): > 50 µM | INH (Cytochrome P450 2C9): > 50 µM | MBC [10]: < 0.39 µM

COc1ncnc(Cn2cc(C(=O)NC[C@H](C)F)c3ncc(C)cc32)c1C
IC50 [1]: 14 nM | MIC [2]: 0.156 µM (≈ 0.0579 µg/mL)

COc1ccc(Cn2cc(C(=O)N(C)CC3CC3)c3ncccc32)cc1
IC50 [1]: > 10000 nM | MIC [2]: > 200 µM

Cc1ccc(Cn2cc(C(=O)NCC3CC3)c3ncccc32)cc1
IC50 [1]: 21 nM | MIC [2]: 13.2 µM (≈ 4.22 µg/mL)

Cc1ccccc1Cn1cc(C(=O)NCC2CC2)c2ncccc21
MCC at 72 h [5]: 94 µM | INH [6]: 28 µM

Cc1ccccc1Cn1cc(C(=O)NCCN2CCCCC2)c2ncccc21
IC50 [1]: > 10000 nM | MIC [2]: > 200 µM

Cc1cccnc1Cn1cc(C(=O)NCC2CC2)c2ncccc21
IC50 [1]: 83 nM | MIC [2]: 27 µM (≈ 8.65 µg/mL)

Cc1cnc2c(C(=O)NCCF)cn(Cc3ncnc(N(C)C)c3C)c2c1
IC50 [1]: 37 nM | MIC [2]: 0.78 µM (≈ 0.289 µg/mL)

COc1ccc(Cn2cc(C(=O)NCC3CC3)c3cnccc32)cc1
IC50 [1]: 1000 nM | MIC [2]: > 200 µM

COc1ncnc(Cn2cc(C(=O)NCCO)c3ncccc32)c1C
IC50 [1]: 90 nM | MIC [2]: 14 µM (≈ 4.78 µg/mL)

Cc1ccc(Cn2cc(C(=O)NCC3CCC(F)(F)CC3)c3ncccc32)c(C)c1
IC50 [1]: 7900 nM | MIC [2]: > 200 µM

COc1ccc(Cn2cc(C(=O)NCC3CC3)c3ncccc32)cc1
IC50 [1]: 7 nM | MIC [2]: 6.25 µM (≈ 2.1 µg/mL)

Cc1ccc(Cn2cc(C(=O)NCCF)c3ncccc32)c(C)c1
IC50 [1]: 10 nM | MIC [2]: 1.56 µM (≈ 0.508 µg/mL)

O=C(NCC1CC1)c1cn(CC2CCOCC2)c2cccnc12
IC50 [1]: 2500 nM | MIC [2]: > 100 µM

COc1ncnc(Cn2cc(C(=O)NCCO)c3ncc(C)cc32)c1C [TBA-7371]
MBC [4]: > 100 µM | IC50 [1]: 10 nM | MCC at 72 h [5]: > 100 µM | INH [6]: > 33 µM | MIC [2]: 1.56 µM (≈ 0.554 µg/mL) | INH (Cytochrome P450 2D6): > 50 µM | IC50 [8]: > 10000 nM | INH (Cytochrome P450 1A2): > 50 µM | IC50 [9]: 10 nM | INH (Cytochrome P450 2C19): > 50 µM | INH (Cytochrome P450 3A4): > 50 µM | INH (Cytochrome P450 2C9): > 50 µM | MBC [10]: 0.78 µM (≈ 0.277 µg/mL)

COc1ncnc(Cn2cc(C(=O)NCC3CC3)c3ncccc32)c1C
MCC at 72 h [5]: > 100 µM | INH [6]: > 33 µM | AUC at 576 h [11]: 200 µM·h | INH (Cytochrome P450 2D6): > 50 µM | INH (Cytochrome P450 1A2): > 50 µM | INH (Cytochrome P450 2C19): > 50 µM | INH (Cytochrome P450 3A4): > 50 µM | INH (Cytochrome P450 2C9): > 50 µM

COc1ncnc(Cn2cc(C(=O)NC[C@@H](C)F)c3ncccc32)c1C
MIC [2]: 0.78 µM (≈ 0.279 µg/mL)

COc1ncnc(Cn2cc(C(=O)NCCF)c3ncccc32)c1C
solubility kinetic at 24 h [3]: 8 µM (≈ 2.75 µg/mL) | MBC [4]: 50 µM (≈ 17.2 µg/mL) | IC50 [1]: 10 nM | MCC at 72 h [5]: > 100 µM | log10cfu [12]: 4 | %T>MIC (Mus musculus): 25% | INH [6]: > 33 µM | AUC at 576 h [11]: 200 µM·h | MIC [2]: 1.56 µM (≈ 0.536 µg/mL) | INH (Cytochrome P450 2D6): > 50 µM | fraction unbound [7]: 0.098 | IC50 [8]: > 10000 nM | INH (Cytochrome P450 1A2): > 50 µM | IC50 [9]: 15 nM | INH (Cytochrome P450 2C19): > 50 µM | log10cfu [13]: >1.5 | log10cfu [14]: >1.5 | log10cfu [15]: 1 | INH (Cytochrome P450 3A4): > 50 µM | Activity [16]: Dose-dependent effect | INH (Cytochrome P450 2C9): > 50 µM | MBC [10]: 1.56 µM (≈ 0.536 µg/mL) | Activity [17]: Dose-dependent effect | log10cfu [18]: 1.5

COCCNC(=O)c1cn(Cc2cc(F)cnc2OC)c2cccnc12
IC50 [1]: 4 nM | MIC [2]: 0.78 µM (≈ 0.28 µg/mL)

Cc1ccc(Cn2cc(C(=O)NCCc3ccncc3)c3ncccc32)c(C)c1
IC50 [1]: 5500 nM | MIC [2]: > 200 µM

COc1cccc(F)c1Cn1cc(C(=O)NCC2CC2)c2ncccc21
IC50 [1]: 6 nM | MIC [2]: 1.56 µM (≈ 0.551 µg/mL)

CCc1nc2cc(Cl)ccn2c1C(=O)NCc1ccc(N2CCN(c3ccc(F)cc3)CC2)cc1
MBC [4]: > 100 µM | IC50 [1]: > 10000 nM | MIC [2]: 0.017 µM (≈ 0.00836 µg/mL) | MBC [10]: > 200 µM
